Source: patent US9920030B2 (priority 2006, dated 2018)
Like-named read-outs stand apart in the source and are kept apart here.

What was measured:
Format in all cases: in vivo
[1] = tested on: Plasmopara vilicola (the causal agent of grape downy mildew); assay: Test A: grape downy mildew, test suspension sprayed on grape seedlings after inoculation, visual disease rating; settings: for pest or weed control at 40 ppm: Plasmopara, 144 h, read-out: Percent Disease Control, Test A
Text: General protocol for preparing test suspensions for Test A-C: The test compounds were first dissolved in acetone in an amount equal to 3% of the final volume and then suspended at the desired concentration (in ppm) in acetone and purified water (50/50 mix by volume) containing 250 ppm of the surfactant Trem® 014 (polyhydric alcohol esters). The resulting test suspensions were then used in Tests A-C. Spraying a 200 ppm test suspension to the point of run-off on the test plants was equivalent to a rate of 500 g/ha.
Grape seedlings were inoculated with a spore suspension of Plasmopara vilicola (the causal agent of grape downy mildew) and incubated in a saturated atmosphere at 20° C. for 24 h. After a short drying period, the test suspension was sprayed to the point of run-off on the grape seedlings, which were then moved to a growth chamber at 20° C. for 5 days, after which time the grape seedling were placed back into a saturated atmosphere at 20° C. for 24 h. Upon removal, visual disease ratings were made.
Results for Tests A-C are given in Table A. In the table, a rating of 100 indicates 100% disease control and a rating of 0 indicates no disease control (relative to the controls). A dash (-) indicates no test results.

[2] = tested on: Phytophthora infestans (the causal agent of tomato late blight); assay: whole plant or invertebrate; settings: for pest or weed control at 40 ppm: Phytophthora infestans, 144 h, read-out: Percent Disease Control, Test B
[3] = tested on: Phytophthora infestans (the causal agent of tomato late blight); assay: whole plant or invertebrate; settings: for pest or weed control at 40 ppm: Phytophthora infestans, 96 h, read-out: Percent Disease Control, Test C
[4] = compounds without asterisk (application rate not given), 100 = 100% disease control, 0 = no control relative to the controls

## Cc1cc(C(F)(F)F)nn1CC(=O)N1CCC(c2nc(C3=NC(c4ccccc4)C(c4ccccc4)N3)cs2)CC1 (stereo not drawn) [Compound 108]
[1]; [4]
  Percent Disease Control, Test A: 0%
[2]; [4]
  Percent Disease Control, Test B: 58%
[3]; [4]
  Percent Disease Control, Test C: 0%

## Cc1cc(C(F)(F)F)nn1CC(=O)N1CCC(c2nc(C3=NOC4(c5ccccc5)CCCCC34)cs2)CC1 (stereo not drawn) [Compound 209]
[1]; * tested at 40 ppm
  Percent Disease Control, Test A: 99%
[2]; * tested at 40 ppm
  Percent Disease Control, Test B: 100%
[3]; * tested at 40 ppm
  Percent Disease Control, Test C: 90%

## Cc1cc(C(F)(F)F)nn1CC(=O)N1CCC(c2nc(C3=NOC4(CCCc5sccc54)C3)cs2)CC1 (stereo not drawn) [Compound 109]
[1]; * tested at 40 ppm
  Percent Disease Control, Test A: 100%
[2]; * tested at 40 ppm
  Percent Disease Control, Test B: 100%
[3]; * tested at 40 ppm
  Percent Disease Control, Test C: 98%

## Cc1cc(C(F)(F)F)nn1CC(=O)N1CCC(c2nc(C3=NCC(c4ccccc4)O3)cs2)CC1 (stereo not drawn) [Compound 47]
[1]; [4]
  Percent Disease Control, Test A: 0%
[2]; [4]
  Percent Disease Control, Test B: 85%
[3]; [4]
  Percent Disease Control, Test C: 47%

## Cc1cc(C(F)(F)F)nn1CC(=O)N1CCC(n2cc(-c3cccc(-c4ccccc4)c3)cn2)CC1 [Compound 33]
[1]; [4]
  Percent Disease Control, Test A: 15%
[2]; [4]
  Percent Disease Control, Test B: 9%
[3]; [4]
  Percent Disease Control, Test C: 0%

## Cc1cc(C(F)(F)F)nn1CC(=O)N1CCC(c2nc(-c3cccc4ccccc34)cs2)CC1 [Compound 73]
[1]; [4]
  Percent Disease Control, Test A: 27%
[2]; [4]
  Percent Disease Control, Test B: 40%
[3]; [4]
  Percent Disease Control, Test C: 0%

## Cc1cc(C(F)(F)F)nn1CC(=O)N1CCC(c2nc(-c3ccc(C#N)cc3)cs2)CC1 [Compound 247]
[1]; * tested at 40 ppm
  Percent Disease Control, Test A: 99%
[2]; * tested at 40 ppm
  Percent Disease Control, Test B: 100%
[3]; * tested at 40 ppm
  Percent Disease Control, Test C: 88%

## Cc1cc(C(F)(F)F)nn1CC(=O)N1CCC(c2nc(C3=NOC(C(C)(C)C)C3)cs2)CC1 (stereo not drawn) [Compound 56]
[1]; [4]
  Percent Disease Control, Test A: 99%
[2]; [4]
  Percent Disease Control, Test B: 100%
[3]; [4]
  Percent Disease Control, Test C: 99%

## Cc1cc(C)n(CC(=O)N2CCC(c3nc(C4=NO[C@]5(CCc6ccccc65)C4)cs3)CC2)n1 [Compound 165]
[1]; ** tested at l0 ppm
  Percent Disease Control, Test A: 99%
[2]; ** tested at l0 ppm
  Percent Disease Control, Test B: 100%
[3]; ** tested at l0 ppm
  Percent Disease Control, Test C: 99%

## Cc1cc(C(F)(F)F)nn1CC(=O)N1CCC(c2nc(C3=NOC(c4cccs4)C3)cs2)CC1 (stereo not drawn) [Compound 162]
[1]; * tested at 40 ppm
  Percent Disease Control, Test A: 100%
[2]; * tested at 40 ppm
  Percent Disease Control, Test B: 100%
[3]; * tested at 40 ppm
  Percent Disease Control, Test C: 99%

## CCOc1cc(C(F)(F)F)nn1CC(=O)N1CCC(c2nc(C3=NOC(c4ccccc4)C3)cs2)CC1 (stereo not drawn) [Compound 241]
[1]; * tested at 40 ppm
  Percent Disease Control, Test A: 100%
[2]; * tested at 40 ppm
  Percent Disease Control, Test B: 100%
[3]; * tested at 40 ppm
  Percent Disease Control, Test C: 100%

## Cc1cc(C(F)(F)F)nn1CC(=O)N1CCC(c2nc(C3=NOC4(CCCCc5ccccc54)C3)cs2)CC1 (stereo not drawn) [Compound 192]
[1]; * tested at 40 ppm
  Percent Disease Control, Test A: 99%
[2]; * tested at 40 ppm
  Percent Disease Control, Test B: 100%
[3]; * tested at 40 ppm
  Percent Disease Control, Test C: 99%

## COc1ccccc1C1CC(c2csc(C3CCN(C(=O)Cn4nc(C(F)(F)F)cc4C)CC3)n2)=NO1 (stereo not drawn) [Compound 131]
[1]; * tested at 40 ppm
  Percent Disease Control, Test A: 100%
[2]; * tested at 40 ppm
  Percent Disease Control, Test B: 100%
[3]; * tested at 40 ppm
  Percent Disease Control, Test C: 99%

## Cc1cc(C(F)(F)F)nn1CC(=O)N1CCC(c2nc(C3=NOC(Oc4ccccc4)C3)cs2)CC1 (stereo not drawn) [Compound 204]
[1]; * tested at 40 ppm
  Percent Disease Control, Test A: 99%
[2]; * tested at 40 ppm
  Percent Disease Control, Test B: 100%
[3]; * tested at 40 ppm
  Percent Disease Control, Test C: 99%

## Cc1cc(C(F)(F)F)nn1CC(=O)N1CCC(c2nc(C3=NOC(c4ccccc4)C3C)cs2)CC1 (stereo not drawn) [Compound 25]
[1]; * tested at 40 ppm
  Percent Disease Control, Test A: 100%
[2]; * tested at 40 ppm
  Percent Disease Control, Test B: 100%
[3]; * tested at 40 ppm
  Percent Disease Control, Test C: 99%

## Cc1cc(C(F)(F)F)nn1CC(=O)N1CCC(c2nc(C3=NOC(CO)(c4ccccc4)C3)cs2)CC1 (stereo not drawn) [Compound 159]
[1]; [4]
  Percent Disease Control, Test A: 94%
[2]; [4]
  Percent Disease Control, Test B: 100%
[3]; [4]
  Percent Disease Control, Test C: 99%

## COc1ccccc1C1(C)CC(c2csc(C3CCN(C(=O)Cn4nc(C(F)(F)F)cc4C)CC3)n2)=NO1 (stereo not drawn) [Compound 140]
[1]; * tested at 40 ppm
  Percent Disease Control, Test A: 98%
[2]; * tested at 40 ppm
  Percent Disease Control, Test B: 100%
[3]; * tested at 40 ppm
  Percent Disease Control, Test C: 57%

## Cc1cc(C(F)(F)F)nn1CC(=O)N1CCC(c2nc(C3=NOC(CCBr)C3)cs2)CC1 (stereo not drawn) [Compound 57]
[1]; [4]
  Percent Disease Control, Test A: 99%
[2]; [4]
  Percent Disease Control, Test B: 100%
[3]; [4]
  Percent Disease Control, Test C: 99%

## Cc1cc(C(F)(F)F)nn1CC(=O)N1CCC(c2nc(CN3C(=O)CCC3=O)cs2)CC1 [Compound 207]
[1]; [4]
  Percent Disease Control, Test A: 40%
[2]; [4]
  Percent Disease Control, Test B: 83%
[3]; [4]
  Percent Disease Control, Test C: 0%

## Cc1cc(C(F)(F)F)nn1CC(=O)N1CCC(c2nc(C3=NOC4(CCCCC4)C3)cs2)CC1 [Compound 169]
[1]; [4]
  Percent Disease Control, Test A: 100%
[2]; [4]
  Percent Disease Control, Test B: 100%
[3]; [4]
  Percent Disease Control, Test C: 99%

## Cc1cc(C(F)(F)F)nn1CC(=O)N1CCC(c2nc(C3=NOC(N4CCOC4=O)C3)cs2)CC1 (stereo not drawn) [Compound 213]
[1]; * tested at 40 ppm
  Percent Disease Control, Test A: 94%
[2]; * tested at 40 ppm
  Percent Disease Control, Test B: 100%
[3]; * tested at 40 ppm
  Percent Disease Control, Test C: 98%

## Cc1cc(C(F)(F)F)nn1CC(=O)N1CCC(c2nc(-c3ccc(C(C)(C)C)cc3)cs2)CC1 [Compound 246]
[1]; * tested at 40 ppm
  Percent Disease Control, Test A: 99%
[2]; * tested at 40 ppm
  Percent Disease Control, Test B: 79%
[3]; * tested at 40 ppm
  Percent Disease Control, Test C: 40%

## Cc1cc(C)c([C@H]2CC(c3csc(C4CCN(C(=O)Cn5nc(C(F)(F)F)cc5C)CC4)n3)=NO2)c(C)c1 [Compound 179, 1-[4-[4-[(5R)-4,5-dihydro-5-(2,4,6-trimethylphenyl)-3-isoxazolyl]-2-thiazolyl]-1-piperidinyl]-2-[5-methyl-3-(trifluoromethyl)-1H-pyrazol-1-yl]ethanone]
[1]; * tested at 40 ppm
  pest or weed control at 40 ppm: 99%
[2]
  pest or weed control at 40 ppm: 100%
[3]
  pest or weed control at 40 ppm: 98%

## Cc1cc(C(F)(F)F)nn1CC(=O)N1CCN(c2nc(C3=NOC(c4ccccc4)C3)cs2)CC1 (stereo not drawn) [Compound 154, 1-[4-[4-(4,5-dihydro-5-phenyl-3-isoxazolyl)-2-thiazolyl]-1-piperazinyl]-2-[5-methyl-3-(trifluoromethyl)-1H-pyrazol-1-yl]ethanone]
[1]; * tested at 40 ppm
  pest or weed control at 40 ppm: 90%
[2]
  pest or weed control at 40 ppm: 100%
[3]
  pest or weed control at 40 ppm: 99%

## O=C(Cn1nc(C(F)(F)F)cc1Cl)N1CCC(c2nc(C3=NO[C@]4(CCc5ccccc54)C3)cs2)CC1 [Compound 232, 2-[5-chloro-3-(trifluoromethyl)-1H-pyrazol-1-yl]-1-[4-[4-[(1R)-2,3-dihydrospiro[1-indene-1,5′(4′H)-isoxazol]-3′-yl]-2-thiazolyl]-1-piperidinyl]ethanone]
[1]; ** tested at l0 ppm
  Percent Disease Control, Test A: 100%
[2]; ** tested at l0 ppm
  Percent Disease Control, Test B: 100%
[3]; ** tested at l0 ppm
  Percent Disease Control, Test C: 100%

## Cc1cc(C(F)(F)F)nn1CC(=O)N1CCC(c2nc(-c3cc(-c4ccccc4F)on3)cs2)CC1 [Compound 59]
[1]; * tested at 40 ppm
  Percent Disease Control, Test A: 97%
[2]; * tested at 40 ppm
  Percent Disease Control, Test B: 100%
[3]; * tested at 40 ppm
  Percent Disease Control, Test C: 91%

## Cc1cc(C(F)(F)F)nn1CC(=O)N1CCC(c2nc(-c3cc(-c4ccc(Cl)c(Cl)c4)no3)cs2)CC1 [Compound 87]
[1]; [4]
  Percent Disease Control, Test A: 76%
[2]; [4]
  Percent Disease Control, Test B: 44%
[3]; [4]
  Percent Disease Control, Test C: 0%

## COC(=O)c1ccccc1C1CC(c2csc(C3CCN(C(=O)Cn4nc(C(F)(F)F)cc4C)CC3)n2)=NO1 (stereo not drawn) [Compound 221]
[1]; [4]
  Percent Disease Control, Test A: 100%
[2]; [4]
  Percent Disease Control, Test B: 100%
[3]; [4]
  Percent Disease Control, Test C: 99%

## Cc1cc(C(F)(F)F)nn1CC(=O)N1CCC(c2nc(-c3nn(-c4ccccc4)c(=O)[nH]3)cs2)CC1 [Compound 82]
[1]; [4]
  Percent Disease Control, Test A: 0%
[2]; [4]
  Percent Disease Control, Test B: 88%
[3]; [4]
  Percent Disease Control, Test C: 26%

## Cc1cc(C(F)(F)F)nn1CC(=O)N1CCC(c2nc(C3=NC(c4ccccc4)CCO3)cs2)CC1 (stereo not drawn) [Compound 54]
[1]; [4]
  Percent Disease Control, Test A: 16%
[2]; [4]
  Percent Disease Control, Test B: 73%
[3]; [4]
  Percent Disease Control, Test C: 0%

## Cc1cc(C(F)(F)F)nn1CC(=O)N1CCC(c2nc(C3=NOC(Cc4ccccc4)C3)cs2)CC1 (racemic) [Compound 24]
[1]; [4]
  Percent Disease Control, Test A: 99%
[2]; [4]
  Percent Disease Control, Test B: 100%
[3]; [4]
  Percent Disease Control, Test C: 93%
